Results reported in patent publication US5212187A, “Pyridyl alkylamine compounds which are useful against histamine H1 and H2 receptors” (Zyma SA, priority 1991, dated 1993).

Tests used:
[1] = biological target: T1, histamine H1 -receptors (Cavia porcellus, UniProt P31389); experiment: in vitro histamine H1-antagonism on isolated guinea pig ileum; settings: cumulative concentration/action curves (van Rossum), read-out: H1 -antagonism ileum -log KB (converted)
T1 construct: isolated guinea pig ileum (H1); from tissue; host or cells: isolated guinea pig ileum
T1 sequence (P31389 whole entry): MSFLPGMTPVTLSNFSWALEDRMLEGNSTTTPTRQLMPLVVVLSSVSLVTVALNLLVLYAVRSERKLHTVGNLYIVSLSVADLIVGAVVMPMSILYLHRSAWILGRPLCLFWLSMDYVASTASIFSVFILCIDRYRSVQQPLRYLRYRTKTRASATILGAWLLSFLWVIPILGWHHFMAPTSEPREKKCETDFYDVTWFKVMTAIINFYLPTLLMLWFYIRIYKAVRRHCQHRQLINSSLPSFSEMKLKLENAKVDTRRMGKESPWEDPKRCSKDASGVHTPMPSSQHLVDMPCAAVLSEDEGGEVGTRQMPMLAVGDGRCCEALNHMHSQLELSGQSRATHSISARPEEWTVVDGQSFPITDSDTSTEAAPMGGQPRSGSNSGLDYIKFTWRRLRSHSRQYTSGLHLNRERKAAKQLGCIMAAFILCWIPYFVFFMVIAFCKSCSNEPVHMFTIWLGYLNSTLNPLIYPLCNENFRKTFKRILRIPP
Excerpt: (§1) The compounds of formula I according to the invention are distinguished by a novel overall pharmacological activity that has not been described hitherto. […] Suitable for differentiating the two types of action are, for example, in vitro tests on isolated spontaneously beating guinea pig right atrium (H2) and on isolated guinea pig ileum (H1) (Black, J. W.; Duncan, W. A. M.; Durant, G. J., Ganellin, C. R.; Parsons, M. E. (1972), "Definition and Antagonism of Histamine H2 -receptors", Nature 236, 385-390). The concentration/action curves for determining the pharmacological parameters (-log KB) are recorded using a cumulative technique according to van Rossum, J. M. (1963), "Cumulative Dose-Response Curves. II. Technique for the Making of Dose-Response Curves in Isolated Organs and the Evaluation of Drug Parameters", Arch. Int. Pharmacodyn. Ther. 143, 299-307.
(§2) (determined from isolated guinea pig ileum and atrium, […]

[2] = biological target: T2, histamine H2 -receptors (Cavia porcellus, UniProt P47747); experiment: in vitro histamine H2-antagonism on isolated spontaneously beating guinea pig right atrium; settings: cumulative concentration/action curves (van Rossum), read-out: H2 -antagonism atrium -log KB (converted)
T2 construct: isolated spontaneously beating guinea pig right atrium (H2); from tissue; host or cells: isolated spontaneously beating guinea pig right atrium
T2 sequence (P47747 whole entry): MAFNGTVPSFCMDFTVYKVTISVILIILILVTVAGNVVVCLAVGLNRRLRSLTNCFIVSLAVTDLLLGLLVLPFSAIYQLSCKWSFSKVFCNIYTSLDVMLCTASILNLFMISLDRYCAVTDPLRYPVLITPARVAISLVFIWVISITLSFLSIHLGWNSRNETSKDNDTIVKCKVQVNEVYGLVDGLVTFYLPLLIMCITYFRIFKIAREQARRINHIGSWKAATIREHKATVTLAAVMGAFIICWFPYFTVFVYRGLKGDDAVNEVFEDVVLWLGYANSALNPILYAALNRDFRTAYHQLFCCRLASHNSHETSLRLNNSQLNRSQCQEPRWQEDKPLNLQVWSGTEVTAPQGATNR
Excerpt: as §1, §2

| Kb [1] [nM] | Kb [2] [nM] | SMILES |
| --- | --- | --- |
| 5.01 | 12.6 | CN(CCCCCCCNC(=C[N+](=O)[O-])NCCSCc1csc(NC(=N)N)n1)CCC(c1ccc(Cl)cc1)c1ccccn1 (centres unmarked) [Example 23, N-[7-[N-[3-(4-chlorophenyl)-3-(2-pyridyl)propyl]-N-methylamino]heptyl]-N'-[2-[[(2-guanidino-4-thiazolyl)methyl]thio]ethyl]-2-nitro-1,1-ethenediamine] |
| 3.09 | 5.25 | COc1ccc(CN(CCN(C)CCCCCCNC(=C[N+](=O)[O-])NCCSCc2csc(NC(=N)N)n2)c2ccccn2)cc1 [Example 96, N-[2-[[(2-guanidino-4-thiazolyl)methyl]thio]ethyl]-N'-[6-[N-[2-[N-(4-methoxybenzyl)-N-(2-pyridyl)amino]ethyl]-N-methylamino]hexyl]-2-nitro-1,1-ethenediamine] |
| 7.24 | 372 | COc1ccc(CN(CCN(C)CCCCCCNC(=NCCCOc2cccc(CN3CCCCC3)c2)NC#N)c2ccccn2)cc1 [Example 55, N-cyano-N'-[6-[N-[2-[N-(4-methoxybenzyl)-N-(2-pyridyl)amino]ethyl]-N-methylamino]hexyl]-N"-[3-[3-(piperidinomethyl)phenoxy]propyl]guanidine] |
| 1.58 | 141 | CN(CCCCCCNC(=O)NCCSCc1csc(NC(=N)N)n1)CCN(Cc1ccc(F)cc1)c1ccccn1 [Example 94, N-[6-[N-[2-[N-(4-fluorobenzyl)-N-(2-pyridyl)amino]ethyl]-N-methylamino]hexyl]-N'-[2-[[(2-guanidino-4-thiazolyl)methyl]thio]ethyl]urea] |
